Read-outs that look alike come from different tables or passages of the source.
Experiments:
[1] = biological target: T1, CDK9/CycT1 (Homo sapiens (Human), UniProt P50750); experiment: CDK9/CycT1 kinase assay (Method 1a); assay type: biochemical; conditions: for IC50: 10 μM ATP; for Selectivity CDK9/CDK2: derived from Methods 1a. and 2.
[2] = biological target: T1, CDK9/CycT1; experiment: CDK9/CycT1 high ATP kinase assay (Method 1b); assay type: biochemical; conditions: 2 mM ATP
Method in brief: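 Full-length His-tagged human CDK9/CycT1 (insect cells, ~0.5 μg/ml) pre-incubated 15 min at 22 °C with compound in Tris pH 8.0/MgCl2/DTT buffer; biotinylated peptide substrate, high ATP. After detection reagents, 1 h at 22 °C; TR-FRET 665/620 nm emission ratio (350 nm excitation) measured phosphorylation.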

[3] = In vivo pharmacokinetics in rats (Method 6); conditions: male, Wistar, plasma; rat, iv dosing; read-out: t1/2: terminal half-life from in vivo rat study (converted)
Description: 6. In Vivo Pharmacokinetics in Rats
For in vivo pharmacokinetic experiments test compounds were administered to male Wistar rats intravenously at doses of 0.3 to 1 mg/kg formulated as solutions using either rat plasma or solubilizers such as PEG400 in well-tolerated amounts.
For pharmacokinetics after intravenous administration test compounds were given as i.v. bolus and blood samples were taken at 2 min, 8 min, 15 min, 30 min, 45 min, 1 h, 2 h, 4 h, 6 h, 8 h and 24 h after dosing. […] Blood was collected into Lithium-Heparin tubes (Monovetten®, Sarstedt) and centrifuged for 15 min at 3000 rpm. An aliquot of 100 μL from the supernatant (plasma) was taken and precipitated by addition of 400 μL icecold acetonitril and frozen at −20° C. over night. Samples were subsequently thawed and centrifuged at 3000 rpm, 4° C. for 20 minutes. Aliquots of the supernatants were taken for analytical testing using an Agilent 1200 HPLC-system with LCMS/MS detection. PK parameters were calculated by non-compartmental analysis using a PK calculation software.
PK parameters derived from concentration-time profiles after i.v.: CLplasma: Total plasma clearance of test compound (in L/kg/h); CLblood: Total blood clearance of test compound: CLplasma*Cp/Cb (in L/kg/h) with Cp/Cb being the ratio of concentrations in plasma and blood, AUCnorm: Area under the concentration-time curve from t=0 h to infinity (extrapolated) divided by the administered dose (in kg*h/L); t½: terminal half-life (in h).

[4] = system: MOLM-13 human acute myeloid leukemia cells; experiment: Proliferation assay, MOLM-13 (Cell Titre-Glo, Method 3); assay type: cell-based; conditions: MOLM-13, 72-hour exposure, read-out: Inhibition of MOLM-13 cell proliferation IC50
Description: Non-adherent MOLM-13 human acute myeloid leukemia cells (DSMZ ACC 554) were seeded at a density of 5,000 cells/well in a 96-well multititer plate in 100 μL of growth medium supplemented 10% fetal calf serum. After 24 hours, cell viability of one plate (zero-point plate) was determined with the Cell Titre-Glo Luminescent Cell Viability Assay (Promega), while 50 μL of test compound containing medium was added to the wells of the other plates (final concentrations in the range of 0.001-10 μM and DMSO controls; the final concentration of the solvent dimethyl sulfoxide was 0.5%). Cell viability was assessed after 72-hour exposure with the Cell Titre-Glo Luminescent Cell Viability Assay (Promega).

T1 sequence (P50750 whole entry): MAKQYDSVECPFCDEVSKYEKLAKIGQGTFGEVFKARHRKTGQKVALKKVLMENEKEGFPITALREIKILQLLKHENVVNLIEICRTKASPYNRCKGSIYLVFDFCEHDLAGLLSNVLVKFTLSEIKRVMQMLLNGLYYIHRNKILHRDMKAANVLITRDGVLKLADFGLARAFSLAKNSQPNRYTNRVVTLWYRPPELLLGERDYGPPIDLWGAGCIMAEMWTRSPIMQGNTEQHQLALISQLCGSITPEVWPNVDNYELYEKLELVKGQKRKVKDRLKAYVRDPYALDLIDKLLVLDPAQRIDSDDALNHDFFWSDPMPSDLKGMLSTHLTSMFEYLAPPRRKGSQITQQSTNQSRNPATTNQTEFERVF
T1 sequence (O60563 whole entry partner): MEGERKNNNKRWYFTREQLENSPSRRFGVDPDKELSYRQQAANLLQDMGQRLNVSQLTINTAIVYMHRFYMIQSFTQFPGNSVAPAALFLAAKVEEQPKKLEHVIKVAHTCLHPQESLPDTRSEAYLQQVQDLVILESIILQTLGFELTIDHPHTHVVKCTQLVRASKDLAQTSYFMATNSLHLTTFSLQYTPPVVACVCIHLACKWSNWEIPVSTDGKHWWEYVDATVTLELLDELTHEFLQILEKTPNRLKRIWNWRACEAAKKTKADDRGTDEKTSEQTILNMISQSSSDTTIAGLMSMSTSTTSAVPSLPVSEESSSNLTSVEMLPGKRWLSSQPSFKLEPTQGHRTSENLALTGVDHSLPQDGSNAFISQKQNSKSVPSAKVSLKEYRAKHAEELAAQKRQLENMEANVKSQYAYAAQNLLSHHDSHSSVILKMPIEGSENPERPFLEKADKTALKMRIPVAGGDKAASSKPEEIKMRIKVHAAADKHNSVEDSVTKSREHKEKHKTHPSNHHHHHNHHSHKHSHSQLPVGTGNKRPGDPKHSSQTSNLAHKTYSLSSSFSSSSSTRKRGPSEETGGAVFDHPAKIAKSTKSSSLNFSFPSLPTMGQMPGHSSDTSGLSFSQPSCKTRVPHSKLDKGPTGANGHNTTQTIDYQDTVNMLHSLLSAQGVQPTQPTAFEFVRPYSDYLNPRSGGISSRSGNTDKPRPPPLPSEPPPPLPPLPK

In the case of CS(=O)(Cc1cc(Nc2ncc(F)c(-c3ccc(F)cc3F)n2)cc(C(F)(F)F)c1)=NC#N (racemic) [Example 1, (rac)-{[3-{[4-(2,4-Difluorophenyl)-5-fluoropyrimidin-2-yl]amino}-5-(trifluoromethyl)benzyl](methyl)oxido-λ^6-sulfanylidene}cyanamide], the IC50 [1] is reported as 13 nM, the “Selectivity CDK9/CDK2” value [1] is reported as 105 and the IC50 [2] is reported as 39 nM.
In the case of CS(=N)(=O)Cc1cc(Nc2ncc(F)c(-c3ccc(F)cc3F)n2)cc(C(F)(F)F)c1 (racemic) [Example 4, (rac)-4-(2,4-Difluorophenyl)-5-fluoro-N-{3-[(S-methylsulfonimidoyl)methyl]-5-(trifluoromethyl)phenyl}pyrimidin-2-amine], the IC50 [1] is reported as 10 nM, the “Selectivity CDK9/CDK2” value [1] is reported as 88 and the half-life [3] is reported as 4.5 h. It also gave an IC50 [2] of 251 nM.
For CS(=O)(Cc1cc(Nc2ncc(F)c(-c3ccc(F)cc3F)n2)cc(C(F)(F)F)c1)=NC(N)=O (racemic) [Example 7, (rac)-1-{[3-{[4-(2,4-Difluorophenyl)-5-fluoropyrimidin-2-yl]amino}-5-(trifluoromethyl)benzyl](methyl)oxido-λ^6-sulfanylidene}urea], the IC50 [1] was 12 nM, the “Selectivity CDK9/CDK2” value [1] was 98 and the IC50 [2] was 105 nM.
With CS(=N)(=O)Cc1cc(Cl)cc(Nc2ncc(F)c(-c3ccc(F)cc3F)n2)c1 (racemic) [Example 15, (rac)-N-{3-chloro-5-[(S-methylsulfonimidoyl)methyl]phenyl}-4-(2,4-difluorophenyl)-5-fluoropyrimidin-2-amine] the IC50 [1] was 24 nM, the “Selectivity CDK9/CDK2” value [1] was 26 and the IC50 [2] was 892 nM.
For CS(=O)(Cc1cc(Nc2ncc(F)c(-c3ccc(F)cc3F)n2)cc(S(F)(F)(F)(F)F)c1)=NC#N (racemic) [Example 28, (rac)-{[3-{[4-(2,4-Difluorophenyl)-5-fluoropyrimidin-2-yl]amino}-5-(pentafluoro-λ^6-sulfanyl)benzyl](methyl)oxido-λ^6-sulfanylidene}cyanamide], the IC50 [1] was 6 nM, the “Selectivity CDK9/CDK2” value [1] was 210 and the IC50 ([4]; Homo sapiens, MOLM-13, 72 h) was 145 nM. The IC50 [2] was 5 nM.
In the case of CS(=O)(Cc1cc(Nc2ncc(F)c(-c3ccc(F)cc3F)n2)cc(C(F)(F)F)c1)=NC#N (single isomer, unassigned) [Example 2, {[3-{[4-(2,4-Difluorophenyl)-5-fluoropyrimidin-2-yl]amino}-5-(trifluoromethyl)benzyl](methyl)oxido-λ^6-sulfanylidene}cyanamide], the IC50 [1] is reported as 7 nM, the “Selectivity CDK9/CDK2” value [1] is reported as 166 and the half-life [3] is reported as 4.3 h. For the same compound, the IC50 [2] was 29 nM.
In the case of CS(=O)(Cc1cc(Nc2ncc(F)c(-c3ccc(F)cc3F)n2)cc(C(F)(F)F)c1)=NC#N (single isomer, unassigned) [Example 3, {[3-{[4-(2,4-Difluorophenyl)-5-fluoropyrimidin-2-yl]amino}-5-(trifluoromethyl)benzyl](methyl)oxido-λ^6-sulfanylidene}cyanamide], the IC50 [1] is reported as 8 nM, the “Selectivity CDK9/CDK2” value [1] is reported as 170 and the IC50 [2] is reported as 32 nM.
In the case of CS(=O)(Cc1cc(Nc2ncc(F)c(-c3ccc(F)cc3F)n2)cc(C(F)(F)F)c1)=NC(N)=O (single isomer, unassigned) [Example 23, 1-{[3-{[4-(2,4-Difluorophenyl)-5-fluoropyrimidin-2-yl]amino}-5-(trifluoromethyl)benzyl](methyl)oxido-λ^6-sulfanylidene}urea], the IC50 [1] is reported as 4 nM, the “Selectivity CDK9/CDK2” value [1] is reported as 88 and the IC50 [2] is reported as 16 nM.
For CS(=N)(=O)Cc1cc(Nc2ncc(F)c(-c3ccc(F)cc3F)n2)cc(S(F)(F)(F)(F)F)c1 (single isomer, unassigned) [Example 32, 4-(2,4-Difluorophenyl)-5-fluoro-N-{3-[(S-methylsulfonimidoyl)methyl]-5-(pentafluoro-λ^6-sulfanyl)phenyl}pyrimidin-2-amine], the IC50 [1] was 6 nM, the “Selectivity CDK9/CDK2” value [1] was 263 and the IC50 [4] was 165 nM. The half-life [3] was 15 h and the IC50 [2] was 6 nM.
In the case of CS(=O)(Cc1cc(Nc2ncc(F)c(-c3ccc(F)cc3F)n2)cc(S(F)(F)(F)(F)F)c1)=NC(N)=O (single isomer, unassigned) [Example 33, 1-{[3-{[4-(2,4-Difluorophenyl)-5-fluoropyrimidin-2-yl]amino}-5-(pentafluoro-λ^6-sulfanyl)benzyl](methyl)oxido-λ^6-sulfanylidene}urea], the IC50 [1] is reported as 16 nM, the “Selectivity CDK9/CDK2” value [1] is reported as 98 and the IC50 [4] is reported as 200 nM. For the same compound, the IC50 [2] was 99 nM.

Reference: patent US9499492B2, “4-(ortho)-fluorophenyl-5-fluoropyrimidin-2-yl amines containing a sulfoximine group” (BAYER PHARMA AKTIENGESELLSCHAFT, priority 2012, dated 2016)
